# Like-named read-outs stand apart in the source and are kept apart here.
# Experiments:
# C. difficile = assay: MIC by broth microdilution against C. difficile strains; format: cell-based, Clostridioides difficile; settings: for MIC: Table 9, read-out: MIC
# MRSA (NRS70, NRS119) = assay: MIC against MRSA strains; format: cell-based, Staphylococcus aureus; settings: Staphylococcus aureus, read-out: MIC
# S. aureus ATCC29213 = assay: MIC against MSSA; format: cell-based, Staphylococcus aureus; settings: Staphylococcus aureus; S. aureus ATCC29213; Table 1; read-out: MIC
# E. faecium NCTC7171 = assay: MIC against E. faecium; format: cell-based, Enterococcus faecium; settings: Enterococcus faecium; E. faecium NCTC7171; Table 1; read-out: MIC
# Bacteroides fragilis = assay: MIC against gut bacterium Bacteroides fragilis; format: cell-based; settings: Bacteroides fragilis, Bacteroides fragilis strain HM-709, read-out: MIC
# Bifidobacterium longum = assay: MIC against gut bacterium Bifidobacterium longum; format: cell-based; settings: Bifidobacterium longum, Bifidobacterium longum strain HM-846, read-out: MIC
# Corynebacterium spp. = assay: MIC against gut bacterium Corynebacterium spp.; format: cell-based; settings: Corynebacterium, Corynebacterium spp. strain HM-784
# Fusobacterium nucleatum = assay: MIC against gut bacterium Fusobacterium nucleatum; format: cell-based; settings: Fusobacterium nucleatum, Fusobacterium nucleatum strain HM-992, read-out: MIC
# Lactobacillus reuteri = assay: MIC against gut bacterium Lactobacillus reuteri; format: cell-based
# Lactobacillus gasseri = assay: MIC against gut bacterium Lactobacillus gasseri; format: cell-based
# Veillonella sp. HM-49 = assay: MIC against gut bacterium Veillonella sp.; format: cell-based
# Eubacterium sp. = assay: MIC against gut bacterium Eubacterium sp.; format: cell-based; settings: Eubacterium, Eubacterium sp. strain HM-178, read-out: MIC
compound,measurement,setting,value
"CCc1c(Cl)c(O)c(Cl)c(O)c1C(=O)O[C@H]1[C@H](O)[C@H](OC)[C@H](OC/C2=C\C=C\C[C@H](O)/C(C)=C/[C@H](CC)[C@@H](O[C@@H]3OC(C)(C)[C@@H](OC(=O)C(C)C)[C@H](O)[C@@H]3O)/C(C)=C/C(C)=C/C[C@@H]([C@@H](C)O)OC2=O)O[C@@H]1C [FDX, fidaxomicin, reference compound]",MIC,"C. difficile; Clostridioides difficile, C. difficile NR-32882",0.06 µg/mL
same,MIC,"C. difficile; Clostridioides difficile, C. difficile NR-32884",0.03 µg/mL
same,MIC,"C. difficile; Clostridioides difficile, C. difficile NR-32885",0.25 µg/mL
same,MIC,"C. difficile; Clostridioides difficile, C. difficile NR-32886",0.03 µg/mL
same,MIC,"C. difficile; Clostridioides difficile, C. difficile NR-32888",0.03 µg/mL
same,MIC,"C. difficile; Clostridioides difficile, C. difficile NR-32889",0.25 µg/mL
same,MIC,"C. difficile; Clostridioides difficile, C. difficile NR-32890",0.06 µg/mL
same,MIC,"C. difficile; Clostridioides difficile, C. difficile NR-32891",0.03 µg/mL
same,MIC,"C. difficile; Clostridioides difficile, C. difficile NR-32892",0.03 µg/mL
same,MIC,"C. difficile; Clostridioides difficile, C. difficile NR-32895",0.03 µg/mL
same,MIC,"C. difficile; Clostridioides difficile, C. difficile NR-32896",0.03 µg/mL
same,MIC,"C. difficile; Clostridioides difficile, C. difficile NR-32897",0.03 µg/mL
same,MIC,"C. difficile; Clostridioides difficile, C. difficile NR-32900",0.03 µg/mL
same,MIC,"C. difficile; Clostridioides difficile, C. difficile NR-32903",0.03 µg/mL
same,MIC,"C. difficile; Clostridioides difficile, C. difficile NR-32904",0.03 µg/mL
same,MIC,"C. difficile; Clostridioides difficile, C. difficile NR-49277",0.06 µg/mL
same,MIC,"C. difficile; Clostridioides difficile, C. difficile NR-49278",0.25 µg/mL
same,MIC,"C. difficile; Clostridioides difficile, C. difficile NR-49279",0.25 µg/mL
same,MIC,"C. difficile; Clostridioides difficile, C. difficile NR-49281",0.25 µg/mL
same,MIC,"C. difficile; Clostridioides difficile, C. difficile NR-49282",0.06 µg/mL
same,MIC,"C. difficile; Clostridioides difficile, C. difficile NR-49283",0.03 µg/mL
same,MIC,"C. difficile; Clostridioides difficile, C. difficile NR-49284",0.06 µg/mL
same,MIC,"C. difficile; Clostridioides difficile, C. difficile NR-49285",0.06 µg/mL
same,MIC,"C. difficile; Clostridioides difficile, C. difficile NR-49286",0.25 µg/mL
same,MIC,"C. difficile; Clostridioides difficile, C. difficile NR-49287",0.25 µg/mL
same,MIC,"C. difficile; Clostridioides difficile, C. difficile NR-49288",0.25 µg/mL
same,MIC,"C. difficile; Clostridioides difficile, C. difficile NR-49289",0.03 µg/mL
same,MIC,"C. difficile; Clostridioides difficile, C. difficile NR-49290",0.06 µg/mL
same,MIC,"C. difficile; Clostridioides difficile, C. difficile NR-49291",0.25 µg/mL
same,MIC,"C. difficile; Clostridioides difficile, C. difficile NR-49293",≤ 0.03 µg/mL
same,MIC,"C. difficile; Clostridioides difficile, C. difficile NR-49295",≤ 0.03 µg/mL
same,MIC,"C. difficile; Clostridioides difficile, C. difficile NR-49296",≤ 0.03 µg/mL
same,MIC,"C. difficile; Clostridioides difficile, C. difficile NR-49297",0.0125 µg/mL
same,MIC,"C. difficile; Clostridioides difficile, C. difficile NR-49300",0.03 µg/mL
same,MIC,"C. difficile; Clostridioides difficile, C. difficile NR-49301",0.03 µg/mL
same,MIC,"C. difficile; Clostridioides difficile, C. difficile NR-49303",0.03 µg/mL
same,MIC,"C. difficile; Clostridioides difficile, C. difficile NR-49304",0.06 µg/mL
same,MIC,"C. difficile; Clostridioides difficile, C. difficile NR-49306",0.03 µg/mL
same,MIC,"C. difficile; Clostridioides difficile, C. difficile NR-49307",0.03 µg/mL
same,MIC,"C. difficile; Clostridioides difficile, C. difficile NR-49309",0.03 µg/mL
same,MIC,"C. difficile; Clostridioides difficile, C. difficile NR-49311",0.03 µg/mL
same,MIC,"C. difficile; Clostridioides difficile, C. difficile NR-49313",0.03 µg/mL
same,MIC,"C. difficile; Clostridioides difficile, C. difficile NR-49314",0.25 µg/mL
same,MIC,"C. difficile; Clostridioides difficile, C. difficile NR-49315",0.06 µg/mL
same,MIC,"C. difficile; Clostridioides difficile, C. difficile NR-49317",0.06 µg/mL
same,MIC,"C. difficile; Clostridioides difficile, C. difficile NR-49323",≤ 0.03 µg/mL
same,MIC,"C. difficile; Clostridioides difficile, C. difficile NR-49324",0.06 µg/mL
same,MIC,"C. difficile; Clostridioides difficile, C. difficile NR-49325",0.03 µg/mL
same,MIC,"C. difficile; Clostridioides difficile, C. difficile NR-49326",0.03 µg/mL
same,MIC,"C. difficile; Clostridioides difficile, C. difficile NR-49327",0.03 µg/mL
same,MIC,"C. difficile; Clostridioides difficile, C. difficile NR-49328",0.03 µg/mL
same,MIC,"C. difficile; Clostridioides difficile, C. difficile NR-49329",0.03 µg/mL
same,MIC50,"C. difficile; Clostridioides difficile, 101 C. difficile strains",0.06 µg/mL
same,MIC90,"C. difficile; Clostridioides difficile, 101 C. difficile strains, read-out: MIC90 (101 strains)",0.25 µg/mL
same,Selectivity,"C. difficile; MIC MRSA NRS70/MIC C. difficile ATCC43255, Table 7",128
same,MIC,"MRSA (NRS70, NRS119); MRSA NRS70, Table 1",8 µg/mL
same,MIC,"MRSA (NRS70, NRS119); MRSA NRS70, Table 7",8 µg/mL
same,MIC,"MRSA (NRS70, NRS119); MRSA NRS119, Table 1",2 µg/mL
same,MIC,S. aureus ATCC29213,8 µg/mL
same,MIC,E. faecium NCTC7171,2 µg/mL
same,MIC,Bacteroides fragilis; Table 1,> 32 µg/mL
same,MIC,Bacteroides fragilis; Table 7,> 32 µg/mL
same,MIC,Bifidobacterium longum; Table 1,< 0.01 µg/mL
same,MIC,Bifidobacterium longum; Table 7,< 0.01 µg/mL
same,MIC,Corynebacterium spp.; Table 1,< 0.06 µg/mL
same,MIC,Corynebacterium spp.; Table 7,< 0.0625 µg/mL
same,MIC,Fusobacterium nucleatum; Table 1,< 0.06 µg/mL
same,MIC,Fusobacterium nucleatum; Table 7,< 0.0625 µg/mL
same,MIC,"Lactobacillus reuteri; Lactobacillus reuteri strain HM-102, Table 7",>32 µg/mL
same,MIC,"Lactobacillus reuteri; Limosilactobacillus reuteri, Lactobacillus reuter strain HM-102, Table 1, read-out: MIC",> 32 µg/mL
same,MIC,"Lactobacillus gasseri; Lactobacillus gasseri strain HM-644, Table 7",2 µg/mL
same,MIC,"Lactobacillus gasseri; Lactobacillus gasseri, Lactobacillus gasser strain HM-644, Table 1, read-out: MIC",2 µg/mL
same,MIC,"Veillonella sp. HM-49; SP.HM49, Veillonella sp. HM-49, Table 1, read-out: MIC",8 µg/mL
same,MIC,"Veillonella sp. HM-49; Veillonella sp. strain HM-49, Table 7",8 µg/mL
same,MIC,Eubacterium sp.; Table 1,16 µg/mL
same,MIC,Eubacterium sp.; Table 7,16 µg/mL
